Counter-ions that a name gives are not always drawn.
Row | SMILES | melting point
1 | CCCc1nc2c(N)nc3ccccc3c2n1CCC(N)=O (as salt: hydrochloride) [Example 18, 3-(4-Amino-2-propyl-1H-imidazo[4,5-c]quinolin-1-yl)propanamide hydrochloride] | 242 to 243 °C
2 | CC(C)(Cn1cnc2c(N)nc3ccccc3c21)C(N)=O (as salt: salt) [Example 62, 3-(4-Amino-1H-imidazo[4,5-c]quinolin-1-yl)-2,2-dimethylpropanamide] | 287 to 289 °C
3 | CCCc1nc2c(N)nc3ccccc3c2n1CCCC(=O)N1CCOCC1 [Example 1, 1-(4-Morpholin-4-yl-4-oxobutyl)-2-propyl-1H-imidazo[4,5-c]quinolin-4-amine] | 200 to 202 °C
4 | CCCNC(=O)CCCn1c(CCC)nc2c(N)nc3ccccc3c21 [Example 2, 4-(4-Amino-2-propyl-1H-imidazo[4,5-c]quinolin-1-yl)-N-propylbutanamide] | 161 to 163 °C
5 | CCCc1nc2c(N)nc3ccccc3c2n1CCCC(N)=O [Example 4, 4-(4-Amino-2-propyl-1H-imidazo[4,5-c]quinolin-1-yl)butanamide] | 249 to 251 °C
6 | CCOCc1nc2c(N)nc3ccccc3c2n1CCCC(=O)N1CCOCC1 [Example 5, 2-(Ethoxymethyl)-1-(4-morpholin-4-yl-4-oxobutyl)-1H-imidazo[4,5-c]quinolin-4-amine] | 201 to 203 °C
7 | CCCc1nc2c(N)nc3ccccc3c2n1CCCCCC(=O)N1CCOCC1 [Example 6, 1-(6-Morpholin-4-yl-6-oxohexyl)-2-propyl-1H-imidazo[4,5-c]quinolin-4-amine] | 149 to 151 °C
8 | CCCNC(=O)CCCCCn1c(CCC)nc2c(N)nc3ccccc3c21 [Example 7, 6-(4-Amino-2-propyl-1H-imidazo[4,5-c]quinolin-1-yl)-N-propylhexanamide] | 139 to 141 °C
9 | CCCc1nc2c(N)nc3ccccc3c2n1CCCCCC(=O)NC [Example 8, 6-(4-Amino-2-propyl-1H-imidazo[4,5-c]quinolin-1-yl)-N-methylhexanamide] | 158 to 159 °C
10 | CCCc1nc2c(N)nc3ccccc3c2n1CCCCCC(N)=O [Example 9, 6-(4-Amino-2-propyl-1H-imidazo[4,5-c]quinolin-1-yl)hexanamide] | 210 to 211 °C
11 | CCCNC(=O)CCCCCn1cnc2c(N)nc3ccccc3c21 [Example 10, 6-(4-Amino-1H-imidazo[4,5-c]quinolin-1-yl)-N-propylhexanamide] | 128 to 130 °C
12 | Nc1nc2ccccc2c2c1ncn2CCCCCC(=O)N1CCOCC1 [Example 11, 1-(6-Morpholin-4-yl-6-oxohexyl)-1H-imidazo[4,5-c]quinolin-4-amine] | 166 to 168 °C
13 | COCCc1nc2c(N)nc3ccccc3c2n1CCCCCC(=O)N1CCOCC1 [Example 12, 2-(2-Methoxyethyl)-1-(6-morpholin-4-yl-6-oxohexyl)-1H-imidazo[4,5-c]quinolin-4-amine] | 131 to 132 °C
14 | CCOCc1nc2c(N)nc3ccccc3c2n1CCCCCC(=O)N1CCOCC1 [Example 13, 2-(Ethoxymethyl)-1-(6-morpholin-4-yl-6-oxohexyl)-1H-imidazo[4,5-c]quinolin-4-amine] | 160 to 162 °C
15 | CCCNC(=O)CCCCCn1c(COCC)nc2c(N)nc3ccccc3c21 [Example 14, 6-[4-Amino-2-(ethoxymethyl)-1H-imidazo[4,5-c]quinolin-1-yl]-N-propylhexanamide] | 161 to 162 °C
16 | CCCNC(=O)CCn1c(CCC)nc2c(N)nc3ccccc3c21 [Example 15, 3-(4-Amino-2-propyl-1H-imidazo[4,5-c]quinolin-1-yl)-N-propylpropanamide] | 157 to 158 °C
17 | CCCc1nc2c(N)nc3ccccc3c2n1CCC(=O)N1CCOCC1 [Example 16, 1-(3-Morpholin-4-yl-3-oxopropyl)-2-propyl-1H-imidazo[4,5-c]quinolin-4-amine] | 172 to 173 °C
18 | CCCc1nc2c(N)nc3ccccc3c2n1CCC(=O)NC [Example 17, 3-(4-Amino-2-propyl-1H-imidazo[4,5-c]quinolin-1-yl)-N-methylpropanamide] | 177 to 178 °C
19 | COCCc1nc2c(N)nc3ccccc3c2n1CCC(=O)N1CCOCC1 [Example 19, 2-(2-Methoxyethyl)-1-(3-morpholin-4-yl-3-oxopropyl)-1H-imidazo[4,5-c]quinolin-4-amine] | 125 to 126 °C
20 | CNC(=O)CCn1cnc2c(N)nc3ccccc3c21 [Example 20, 3-(4-Amino-1H-imidazo[4,5-c]quinolin-1-yl)-N-methylpropanamide] | > 260 °C
21 | CCCNC(=O)CCn1cnc2c(N)nc3ccccc3c21 [Example 21, 3-(4-Amino-1H-imidazo[4,5-c]quinolin-1-yl)-N-propylpropanamide] | 212 to 214 °C
22 | Cc1nc2c(N)nc3ccccc3c2n1CCC(=O)N1CCOCC1 [Example 22, 2-Methyl-1-(3-morpholin-4-yl-3-oxopropyl)-1H-imidazo[4,5-c]quinolin-4-amine] | 166 to 169 °C

Row | SMILES | melting point
23 | CCOCc1nc2c(N)nc3ccccc3c2n1CCC(=O)N1CCOCC1 [Example 23, 2-(Ethoxymethyl)-1-(3-morpholin-4-yl-3-oxopropyl)-1H-imidazo[4,5-c]quinolin-4-amine] | 187 to 189 °C
24 | CCOCc1nc2c(N)nc3ccccc3c2n1CCC(N)=O [Example 24, 3-[4-Amino-2-(ethoxymethyl)-1H-imidazo[4,5-c]quinolin-1-yl]propanamide] | > 250 °C
25 | CCCc1nc2c(N)nc3ccccc3c2n1CCCCCCCCCCCC(=O)NC [Example 25, 12-(4-Amino-2-propyl-1H-imidazo[4,5-c]quinolin-1-yl)-N-methyldodecanamide] | 135 to 137 °C
26 | CCCc1nc2c(N)nc3ccccc3c2n1CC(C)(C)C(N)=O [Example 26, 3-(4-Amino-2-propyl-1H-imidazo[4,5-c]quinolin-1-yl)-2,2-dimethylpropanamide] | 219 to 221 °C
27 | CCCc1nc2c(N)nc3ccccc3c2n1CC(C)(C)C(=O)N1CCOCC1 [Example 27, 1-(2,2-Dimethyl-3-morpholin-4-yl-3-oxopropyl)-2-propyl-1H-imidazo[4,5-c]quinolin-4-amine] | 212 to 214 °C
28 | CCOCc1nc2c(N)nc3ccccc3c2n1CC(C)(C)C(N)=O [Example 28, 3-[4-Amino-2-(ethoxymethyl)-1H-imidazo[4,5-c]quinolin-1-yl]-2,2-dimethylpropanamide] | 241 to 243 °C
29 | CCCc1nc2c(N)nc3c(c2n1CCCC(=O)N1CCOCC1)CCCC3 [Example 29, 1-(4-Morpholin-4-yl-4-oxobutyl)-2-propyl-6,7,8,9-tetrahydro-1H-imidazo[4,5-c]quinolin-4-amine] | 181 to 183 °C
30 | CCCc1nc2c(N)nc3c(c2n1CCCCCC(=O)N1CCOCC1)CCCC3 [Example 30, 1-(6-Morpholin-4-yl-6-oxohexyl)-2-propyl-6,7,8,9-tetrahydro-1H-imidazo[4,5-c]quinolin-4-amine] | 162 to 163 °C
31 | Cc1nc2c(N)nc3ccccc3c2n1CCC(N)=O [Example 31, 3-(4-Amino-2-methyl-1H-imidazo[4,5-c]quinolin-1-yl)propanamide] | 237 to 239 °C
32 | CCCNC(=O)CCn1c(C)nc2c(N)nc3ccccc3c21 [Example 32, 3-(4-Amino-2-methyl-1H-imidazo[4,5-c]quinolin-1-yl)-N-propylpropanamide] | 188 to 189 °C
33 | CCOCc1nc2c(N)nc3ccccc3c2n1CCCC(N)=O [Example 33, 4-[4-Amino-2-(ethoxymethyl)-1H-imidazo[4,5-c]quinolin-1-yl]butanamide] | 233 to 235 °C
34 | CCCc1nc2c(N)nc3ccccc3c2n1CCCCC(=O)N1CCOCC1 [Example 34, 1-(5-Morpholin-4-yl-5-oxopentyl)-2-propyl-1H-imidazo[4,5-c]quinolin-4-amine] | 178 to 179 °C
35 | CCCc1nc2c(N)nc3ccccc3c2n1CCCCC(N)=O [Example 35, 5-(4-Amino-2-propyl-1H-imidazo[4,5-c]quinolin-1-yl)pentanamide] | 202 to 203 °C
36 | COCCc1nc2c(N)nc3ccccc3c2n1CCCCC(=O)N1CCOCC1 [Example 36, 2-(2-Methoxyethyl)-1-(5-morpholin-4-yl-5-oxopentyl)-1H-imidazo[4,5-c]quinolin-4-amine] | 128 to 129 °C
37 | CCCc1nc2c(N)nc3cccnc3c2n1CCCC(=O)N1CCOCC1 [Example 37, 1-(4-Morpholin-4-yl-4-oxobutyl)-2-propyl-1H-imidazo[4,5-c][1,5]naphthyridin-4-amine] | 196 to 197 °C
38 | CCOCc1nc2c(N)nc3cccnc3c2n1CCCC(=O)N1CCOCC1 [Example 38, 2-(Ethoxymethyl)-1-(4-morpholin-4-yl-4-oxobutyl)-1H-imidazo[4,5-c][1,5]naphthyridin-4-amine] | 156 to 157 °C
39 | CCOCc1nc2c(N)nc3cccnc3c2n1CCCC(N)=O [Example 39, 4-[4-Amino-2-(ethoxymethyl)-1H-imidazo[4,5-c][1,5]naphthyridin-1-yl]butanamide] | 231 to 232 °C
40 | CCCc1nc2c(N)nc(C)c(C)c2n1CCCC(N)=O [Example 40, 4-(4-Amino-6,7-dimethyl-2-propyl-1H-imidazo[4,5-c]pyridin-1-yl)butanamide] | 226 to 228 °C
41 | CCCc1nc2c(N)nc(C)c(C)c2n1CCCC(=O)N1CCOCC1 [Example 41, 6,7-Dimethyl-1-(4-morpholin-4-yl-4-oxobutyl)-2-propyl-1H-imidazo[4,5-c]pyridin-4-amine] | 164 to 165 °C
42 | CCc1nc2c(N)nc(C)c(C)c2n1CCCC(N)=O [Example 42, 4-(4-Amino-2-ethyl-6,7-dimethyl-1H-imidazo[4,5-c]pyridin-1-yl)butanamide] | 228 to 230 °C
43 | CCc1nc2c(N)nc(C)c(C)c2n1CCCC(=O)N1CCOCC1 [Example 43, 2-Ethyl-6,7-dimethyl-1-(4-morpholin-4-yl-4-oxobutyl)-1H-imidazo[4,5-c]pyridin-4-amine] | 209 to 210 °C
44 | CCOCc1nc2c(N)nc(C)c(C)c2n1CCCC(N)=O [Example 44, 4-[4-Amino-2-(ethoxymethyl)-6,7-dimethyl-1H-imidazo[4,5-c]pyridin-1-yl]butanamide] | 199 to 200 °C
